As usually defined, the half-life is how long it takes for the measured level to halve. The IC50 is the concentration that gives 50% inhibition. For orientation: EC50 means the concentration needed to bring the measured effect to its halfway point. Broadly, the Ki is the equilibrium dissociation constant of an inhibitor or competing ligand from its target.

This is an account of results in US10478492B2, “Modifications of therapeutic agents for enhanced delivery to target sites” (Partikula LLC, priority 2016, dated 2019).

Like-named read-outs stand apart in the source and are kept apart here.

A short description of data set [1]: Stability in 18% rat serum by HPLC. Type of data set: in vitro ADME. How it is done:
(§1) In a further study, Mito-ADCA stability testing was carried out in rat serum. 0.5 mg/mL solutions 18% rat serum were prepared and analyzed by HPLC. Mito-ADCA was detected at 268 nm with a retention time of 18.08 min over time of 4500 min in 18% rat serum. […] After 2 d a peak of TPP-Tris-OH was observed. The amount of TPP-Tris-OH corresponded to 76% of the original.
(§2) Stability of TPP-bis-ADCA in rat serum and water was carried out using 500 μg/mL solution in 18% rat serum. The solution was analyzed by HPLC for two days.
(§3) Hydrolytic stability of TPP-ibDCA in serum, and in water was studied. A 500 μg/mL solution of TPP-ib-DCA in water, and in 18% rat serum was analyzed by HPLC using the method for Mito-ADCA/DCA detection described above. […] In water, hydrolysis of TPP-ib-DCA stops halfway likely due to the acidification of the solution.

The nature of data set [2]: Stability in water by HPLC. The format is physicochemical. Particulars: for stability in water: 2 days. How it is done: as §1, §2, §3
A short description of data set [3]: Stability in cell culture media containing 10% FBS by HPLC. The format is in vitro ADME. How it is done: Stability of ADCA in cell culture media containing 10% FBS was examined by looking at the HPLC chromatograms and area under the peaks. For the study, […] solution of ADCA was prepared by mixing 10 μL of 100 mM DMSO stock solution with 1.99 mL of cell media. Turbidity was observed after mixing, however no precipitate was observed. The samples were then stored at 37° C., 150 μL aliquots were analyzed by HPLC (the sample was mixed before taking an aliquot, however no visible precipitate was observed even before mixing). Alanyl-DCA was detected at 205 nm with a retention time of 9.7 min on HPLC.
Stability of Mito-ADCA in cell culture media containing 10% FBS was monitored by examining the HPLC chromatograms and area under the peaks. Scheme below expected degradation products:
For this study, 500 μM solution of Mito-ADCA (MAD) was prepared by mixing 10 μL of 100 mM DMSO stock solution with 1.99 mL of cell culture media (RPMI 1640 medium, supplemented with 10% FBS, 1% Pen/strep). Turbidity was observed after mixing, however no precipitate was observed. The samples were then stored at 37° C., 150 μL aliquots were analyzed by HPLC (the sample was mixed before taking an aliquot, and no visible precipitate was observed even before mixing).
Using HPLC, MitoADCA (MAD), loss of one alanyl-DCA (MAD-ADCA), loss of three alanyl-DCA (i.e., TPP-Tris-OH) and the alanyl-DCA (ADCA) were tracked. MAD was detected and monitored at 268 nm with retention time of 18.08 min, Mito-A-DCA missing 1 alanyl DCA at 268 nm with retention time of 17.13 min, total amount of MAD and Mito-A-DCA missing 1 alanyl DCA at 268 nm, TPP-Tris-OH at 268 nm with retention time of 14.6 min, and alanyl DCA at 205 nm with retention time of 9.5 min. The MAD half-life in cell media at 500 μM was measured as ˜20 h. TPP-Tris-OH starts appearing in HPLC only after 10 h in media.

In data set [4] the test system is A549 cells. The data set can be described thus: Cytotoxicity in A549 cells. The format is cell-based. The source says:
(§4) Next the cytotoxicity ability of PDCA and PDCA-NPs were studied in A549 and HCT16 cells to evaluate the ability of these new formulations with respect to NaDCA.
(§5) Next the cytotoxicity ability of PalmMetformin and NPs were studied in A549 and HCT16 cells to evaluate the ability of these new formulations with respect to Meformin.

The test system of data set [5] is HCT116 cells. As to the kind of experiment: Cytotoxicity in HCT116 cells. Type of data set: cell-based.
Description: as §4, §5

Data set [6] relates to PDH activity in primary rat hepatocytes. Particulars: read-out: EC50 for increase of PDH activity; cited from earlier work.
The target in data set [7] is PDHK2 (Homo sapiens, UniProt Q15119). The settings on record: cited from earlier work.
Data set [8] has as its target monocarboxylate transporters (MCT). The settings on record: competitive inhibitor of lactate transport in tumors; read-out: Ki as inhibitor of lactate transport; cited from earlier work.
Where [9] appears, read: A549 cells, 24 + 48 h, read-out: IC50 (24 + 48 h).
[10] abbreviates: A549 cells, 72 h, read-out: IC50 (72 h).
Setting [11] is: 500 μg/mL in 18% rat serum, two days.

In data set [1] (0.5 mg/mL in 18% rat serum), `O=C(CCCCC[P+](c1ccccc1)(c1ccccc1)c1ccccc1)NC(COC(=O)CCNC(=O)C(Cl)Cl)(COC(=O)CCNC(=O)C(Cl)Cl)COC(=O)CCNC(=O)C(Cl)Cl.[Br-]` [Mito-ADCA, TPP-Tris-β-alanino-DCA] had a half-life at 0.5 mg/mL of roughly 7 h. For the same compound, the “species released by hydrolysis” value in data set [1] (18% rat serum) and in data set [3] (cell media with 10% FBS) was “Alanyl-DCA is released as a result of hydrolysis instead of DCA” in each case. Also, the stability in water entry in data set [2] is reported as “stable in water for 2 days without signs of decomposition”. This compound gave a half-life at 500 μM in data set [3] (cell culture medium with 10% FBS (no cells), 500 μM, RPMI 1640 with 10% FBS, 37° C.) of roughly 20 h.
In the case of `O=C([O-])C(Cl)Cl.[Na+]` [NaDCA, reference compound], the IC50 in data set [4] (setting [9]) is greater than 20000 µM; in data set [4] (setting [10]) it was greater than 20000 µM; in data set [4] (cell line not stated in the sentence (A549 and HCT16 cells studied), read-out: IC50 value), no less than 20000 µM; in data set [5] (24 + 48 h, read-out: IC50 (24 + 48 h)), greater than 20000 µM; in data set [5] (72 h, read-out: IC50 (72 h)), greater than 20000 µM.
With `O=C(O)CCNC(=O)C(Cl)Cl` [ADCA, β-alanyl-DCA], in data set [3] (1.5 mM, cell culture media with 10% FBS, 37° C., five days), the “change in ADCA concentration (total area of absorbance peak)” value is “virtually no change in ADCA concentration over five days”.
Take `CCCCCCCCCCCCCCCC(=O)NC(COC(=O)C(Cl)Cl)(COC(=O)C(Cl)Cl)COC(=O)C(Cl)Cl` [PDCA, Palmitic-Tris-DCA]: the IC50 in data set [4] (setting [9]) is 204 µM; in data set [4] (setting [10]), 175 µM; in data set [4] (cell line not stated in the sentence (values match A549 of Table 2), read-out: IC50 value) it was roughly 204 µM.
Take `O=C(NCCCCC(NC(=O)C(Cl)Cl)C(=O)NCCCC[P+](c1ccccc1)(c1ccccc1)c1ccccc1)C(Cl)Cl` (stereo not shown) [TPP-bis-ADCA]: the decomposition in serum in data set [1] (500 μg/mL in 18% rat serum, after 2 days) worked out at 2%. For the same compound, in data set [1] (setting [11]), the “detection of DCA” value is listed as “no DCA was detected”; the stability in serum result was “stable in both serum and water”. Moreover, the stability in water entry in data set [2] was “stable in both serum and water”.
Turning to `CC(C)(OC(=O)C(Cl)Cl)C(=O)NCCCC[P+](c1ccccc1)(c1ccccc1)c1ccccc1.[Br-]` [TPP-ib-DCA, (4-(2-(2,2-dichloroacetoxy)-2-methylpropanamido)butyl) triphenylphosphonium bromide], in data set [1] (500 μg/mL in 18% rat serum), the “appearance of free DCA” value is on record as “delayed relative to the disappearance of the ester” and the “hydrolysis in serum compared with MitoDCA” value was “slower than MitoDCA”. In data set [2] (500 μg/mL in water), the hydrolysis in water result is “stops halfway”.
On to `CCCCCCCCCCCCCCCC(=O)NC(COC(=O)CCNC(=O)C(Cl)Cl)(COC(=O)CCNC(=O)C(Cl)Cl)COC(=O)CCNC(=O)C(Cl)Cl` [PADCA, Palm-Tris-β-alanino-DCA], for which the IC50 in data set [4] (Homo sapiens, A549 cells, free PADCA, read-out: IC50 value) was roughly 400 µM.
As for `CN(C)C(=O)c1ccc(S(=O)(=O)c2ccc(NC(=O)[C@@](C)(O)C(F)(F)F)c(Cl)c2)cc1` [AZD7545, 4-[3-chloro-4-[[(2R)-3,3,3-trifluoro-2-hydroxy-2-methylpropanoyl]amino]phenyl]sulfonyl-N,N-dimethylbenzamide], the EC50 in data set [6] is 0.105 µM. Further, the IC50 in data set [7] was 0.0064 µM.
As to `CN(C)C(=N)N=C(N)N` [Meformin, Metformin, reference compound], the IC50 in data set [4] (Homo sapiens, A549 cells, 24 + 48 h, Table 4, read-out: IC50 (24 + 48 h)) is greater than 500 µM; in data set [4] (Homo sapiens, A549 cells, 72 h, Table 4, read-out: IC50 (72 h)), greater than 500 µM; in data set [4] (Homo sapiens, A549 cells, read-out: IC50 values) it was greater than 500 µM; in data set [5] (Homo sapiens, HCT-116, 24 + 48 h, Table 4, read-out: IC50 (24 + 48 h)) it was greater than 500 µM; in data set [5] (Homo sapiens, HCT-116, 72 h, Table 4, read-out: IC50 (72 h)), greater than 500 µM; in data set [5] (Homo sapiens, HCT-116, read-out: IC50 values) it was greater than 500 µM.
On to `N#CC(=Cc1ccc(O)cc1)C(=O)O` [ACCA, α-cyano-4-hydroxy cinnamic acid], for which the Ki in data set [8] was 500 µM.
